Test [1] deals with thoracodorsal arteries (TDA). In words: Pressure myography: agonist-induced constriction of pressurized TDAs from C57Bl/6 mice with pannexin inhibitors or Panx1 mimetic peptides. The class given is cell-based, mouse. The note with it: for effect on phenylephrine-induced constriction of pressurized TDAs: TAT-linked peptides. The method, then:
The contractile responses of pressurized thoracodorsal arteries (TDA) were measured as previously described. Briefly, TDA were isolated and placed in cold Krebs-HEPES until cannulation in a pressure arteriograph (Danish MyoTechnology). After a 30 minute equilibration period, cumulative concentrations of contractile agonists were applied to the TDA pressurized at 80 mmHg, and the vessel was visualized with an Olympus IX-71 microscope attached to a Hamamatsu EM-CCD camera coupled to Slidebook imaging software. […] Lastly, maximal diameter was measured at the end of each experiment in calcium-free Krebs-HEPES supplemented with EGTA (1 mmol/L) and sodium nitroprusside (10 μmol/L). In cases where the vessels were not constricting to the contractile agonist, their viability was assessed by applying 40 mM KCl and only TDA reaching 30% of the maximal diameter were considered for analysis. The contractile responses, as well as the basal tone, are expressed as a percentage of the maximal diameter.
Using pressure arteriography on TDA dissected from C57Bl/6 mice (as described; and aortic ring contraction, as described), we measured the effect of pannexin inhibitors, probenecid and 10Panx1, on the contractile response upon stimulation with different vasoconstrictors: phenylephrine (FIG. 1A), noradrenaline (also called norepinephrine) (FIG. 1B), serotonin (also known as 5-HT) (FIG. 1C) and endothelin-1 (FIG. 1D). […] In contrast, ^10Panx1 and probenecid had no effect on contraction of TDA measured in response to cumulative concentrations of serotonin or endothelin-1 (FIGS. 1C-D; Table 1).
To determine the region of Panx1 necessary for channel activation in response to α1AR stimulation, we produced short peptides derived from the intracellular regions of the Panx1 channel. We generated two peptides mimicking unique mouse Panx1 (mPanx1) sequences in the first intracellular loop (IL1 and IL2) and two peptides mimicking unique mPanx1 sequences in the C-terminal region, one in second intracellular loop (CT1) and one in the C-terminal tail (CT2) (FIG. 4A scissors indicate caspase 3 cleavage site; Table 3). All peptides also contained a TAT sequence to facilitate entry into cells and we verified the intracellular localization of each peptide by immunofluorescence detection of the TAT sequence in TDAs pre-incubated with each peptide (FIG. 7A). We tested the effect of each peptide on phenylephrine-induced contractile responses in pressurized TDAs from C57Bl/6 mice (FIGS. 4B-E). […] Note that these differences in effects of phenylephrine were similar in magnitude to those observed in arteries from SMC-specific Panx1-knockout mice and littermate controls (FIG. 2C, Table 2).

Test [2] has as its system C57Bl/6 mice. Kind of test: Blood pressure by radiotelemetry after peptide injection. The class given is in vivo, mouse. The note with it: conscious C57Bl/6 mice, acute intraperitoneal injection, within 1.5 hours; 5 mg/kg or 20 mg/kg. The method, then:
Blood pressure was measured using radiotelemetry units (Data Sciences International, DSI) implanted in C57Bl/6, Cre^−/Panx1^F1, Cre^−/Panx1^WT, Cre^+/Panx1^WT, and Cre^+/Panx1^F1 mice. The catheter of a radiotelemetry unit (TA11PA-C10, DSI) was implanted in the mouse left carotid artery under isoflurane anesthesia, and the catheter was tunneled trough the radiotransmitter placed in a subcutaneous pouch along the right flank of the mouse, as previously described. After implantation, mice were allowed to recover for seven days.
[…] Blood pressure was recorded for another 1.5 hours, and the mean arterial pressure data from 1 to 1.5 hours post injection was averaged and compared to the basal blood pressure. The ΔMAP was calculated by subtracting the average mean arterial pressure measured for 30 minutes prior to injection to the mean arterial pressure measured for 30 minutes one hour post injection. […]
Based on the central role of α1AR signaling in blood pressure homeostasis, we evaluated the effect of Panx1 deletion on systemic blood pressure. Blood pressure was measured using radiotelemetry units as previously described by us. Blood pressure was measured on the conditional KO mouse model for five days before proceeding to tamoxifen injections, and for another five days 24 hours after the last tamoxifen injection. […]

[3] abbreviates: in presence of the named peptide.

From patent publication US10314883B2, “Compositions and methods for regulating blood pressure” (University of Virginia Patent Foundation, priority 2015, dated 2019) come the findings set out here.

“scrambled intracellular loop 2 IYLYVEQKPY (SEQ ID NO: 7) linked with a TAT sequence [Scrambled IL2]”: in test [1] (C57Bl/6 TDAs), the “effect on phenylephrine-induced constriction of pressurized TDAs” value is on record as “no significant effect”. Moreover, the “EMAX of phenylephrine for TDA constriction” value in test [1] (setting [3]) is 47.5 ± 2.17 percentage of maximal diameter. The “reduction of mean arterial blood pressure” value in test [2] is recorded as “no significant effect”.

With KYPIVEQYLKYGRKKQRRR [IL2], in test [1] (C57Bl/6 TDAs), the “effect on noradrenaline-induced constriction” value was “inhibited” and the “effect on phenylephrine-induced constriction of pressurized TDAs” value is “significantly decreased”. Further, in test [1] (setting [3]), the “EMAX of endothelin-1 for TDA constriction” value was 41.9 ± 3.73 percentage of maximal diameter, the “EMAX of noradrenaline for TDA constriction” value was 53.4 ± 7.00 percentage of maximal diameter, the “EMAX of phenylephrine for TDA constriction” value is on record as 68.6 ± 5.11 percentage of maximal diameter and the “EMAX of serotonin for TDA constriction” value was 36.7 ± 3.52 percentage of maximal diameter. Also, the “reduction of mean arterial blood pressure” value in test [2] came to 13.0±3.3 mmHg.
